Reference: patent US9670201B2, “Methyl- and trifluoromethyl-substituted pyrrolopyridine modulators of RORC2 and methods of use thereof” (Pfizer Inc., priority 2014, dated 2017)

Biological target: RORC2 ligand binding domain (6-His-RORC2 LBD) (Homo sapiens (Human), UniProt P51449)
Experiment: Co-activator recruitment by TR-FRET
Assay type: biochemical
Conditions: 6-His-RORC2 LBD / SRC1-2 coactivator peptide, Table 1

Sequence of RORC2 ligand binding domain (6-His-RORC2 LBD) (P51449 269-508): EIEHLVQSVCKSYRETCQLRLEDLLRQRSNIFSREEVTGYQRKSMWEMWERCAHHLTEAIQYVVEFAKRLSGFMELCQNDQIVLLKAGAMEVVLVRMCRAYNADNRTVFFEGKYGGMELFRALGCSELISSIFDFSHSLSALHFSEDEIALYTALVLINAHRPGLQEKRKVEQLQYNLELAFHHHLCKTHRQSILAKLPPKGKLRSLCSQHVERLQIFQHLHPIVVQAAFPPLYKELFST

| SMILES | IC50 [nM] |
| --- | --- |
| Cn1cc(C2CCN(C(=O)[C@H]3C[C@H]4CCCC[C@H]4C3)CC2)c2c(C(F)(F)F)c(NC(=O)c3cccc(C#N)c3)cnc21 [Example 16, 3-cyano-N-(1-methyl-3-(1-((2r,3aR,7aS)-octahydro-1H-indene-2-carbonyl)piperidin-4-yl)-4-(trifluoromethyl)-1H-pyrrolo[2,3-b]pyridin-5-yl)benzamide] | 10.2 |
| Cn1cc(C2CCN(C(=O)CC3CCC3)CC2)c2c(C(F)(F)F)c(NC(=O)c3cccc(C#N)c3)cnc21 [Example 18, 3-cyano-N-(3-(1-(2-cyclobutylacetyl)piperidin-4-yl)-1-methyl-4-(trifluoromethyl)-1H-pyrrolo[2,3-b]pyridin-5-yl)benzamide] | 3.8 |
| Cn1cc(C2CCN(C(=O)CC3CCCCC3)CC2)c2c(C(F)(F)F)c(NC(=O)c3cccc(C#N)c3)cnc21 [Example 20, 3-cyano-N-(3-(1-(2-cyclohexylacetyl)piperidin-4-yl)-1-methyl-4-(trifluoromethyl)-1H-pyrrolo[2,3-b]pyridin-5-yl)benzamide] | 5.2 |
| Cn1cc(C2CCN(C(=O)CC3CC3)CC2)c2c(C(F)(F)F)c(NC(=O)c3cccc(C#N)c3)cnc21 [Example 24, 3-cyano-N-(3-(1-(2-cyclopropylacetyl)piperidin-4-yl)-1-methyl-4-(trifluoromethyl)-1H-pyrrolo[2,3-b]pyridin-5-yl)benzamide] | 5.8 |
| Cc1c(NC(=O)c2cccc(C#N)c2)cnc2c1c(C1CCN(C(=O)c3cccc4c3CCC4)CC1)cn2C [Example 34, 3-cyano-N-(3-(1-(2,3-dihydro-1H-indene-4-carbonyl)piperidin-4-yl)-1,4-dimethyl-1H-pyrrolo[2,3-b]pyridin-5-yl)benzamide] | 5.7 |
| Cc1c(NC(=O)c2cccc(C#N)c2)cnc2c1c(C1CCN(C(=O)[C@H](C)C(C)C)CC1)cn2C [Example 37, (R)-3-cyano-N-(3-(1-(2,3-dimethylbutanoyl)piperidin-4-yl)-1,4-dimethyl-1H-pyrrolo[2,3-b]pyridin-5-yl)benzamide] | 11.6 |
| Cc1c(NC(=O)c2cc(Cl)ccc2F)cnc2c1c(C1CCN(C(=O)[C@H](C)C(C)(C)C)CC1)cn2C [Example 41, (R)-5-chloro-N-(1,4-dimethyl-3-(1-(2,3,3-trimethylbutanoyl)piperidin-4-yl)-1H-pyrrolo[2,3-b]pyridin-5-yl)-2-fluorobenzamide] | 4.5 |
| COc1cc(Cl)cc(C(=O)Nc2cnc3c(c(C4CCN(C(=O)[C@H](C)C(C)(C)C)CC4)cn3C)c2C)c1 [Example 42, (R)-3-chloro-N-(1,4-dimethyl-3-(1-(2,3,3-trimethylbutanoyl)piperidin-4-yl)-1H-pyrrolo[2,3-b]pyridin-5-yl)-5-methoxybenzamide] | 7.6 |
| Cc1c(NC(=O)c2cccc(C#N)c2)cnc2c1c(C1CCN(C(=O)[C@H](C)C34CC(C3)C4)CC1)cn2C [Example 50, (R)—N-(3-(1-(2-(bicyclo[1.1.1]pentan-1-yl)propanoyl)piperidin-4-yl)-1,4-dimethyl-1H-pyrrolo[2,3-b]pyridin-5-yl)-3-cyanobenzamide] | 7.5 |
| Cc1c(NC(=O)c2cccc(C#N)c2)cnc2c1c(C1CCN(C(=O)[C@H](C)C3CCCC3)CC1)cn2C [Example 51, (R)-3-cyano-N-(3-(1-(2-cyclopentylpropanoyl)piperidin-4-yl)-1,4-dimethyl-1H-pyrrolo[2,3-b]pyridin-5-yl)benzamide] | 6.9 |
| C[C@@H](C(=O)N1CCC(c2cn(C)c3ncc(NC(=O)c4cc(O)cc(C#N)c4)c(C(F)(F)F)c23)CC1)C(C)(C)C [Example 54, (R)-3-cyano-5-hydroxy-N-(1-methyl-4-(trifluoromethyl)-3-(1-(2,3,3-trimethylbutanoyl)piperidin-4-yl)-1H-pyrrolo[2,3-b]pyridin-5-yl)benzamide] | 4.7 |
| Cn1cc(C2CCN(C(=O)C3CCCC3)CC2)c2c(C(F)(F)F)c(NC(=O)c3cc(O)cc(C#N)c3)cnc21 [Example 55, 3-cyano-N-(3-(1-(cyclopentanecarbonyl)piperidin-4-yl)-1-methyl-4-(trifluoromethyl)-1H-pyrrolo[2,3-b]pyridin-5-yl)-5-hydroxybenzamide] | 10.6 |
| Cc1c(NC(=O)c2cc(O)cc(C#N)c2)cnc2c1c(C1CCN(C(=O)[C@H](C)C(C)(C)C)CC1)cn2C [Example 56, (R)-3-cyano-N-(1,4-dimethyl-3-(1-(2,3,3-trimethylbutanoyl)piperidin-4-yl)-1H-pyrrolo[2,3-b]pyridin-5-yl)-5-hydroxybenzamide] | 5.6 |
| Cc1ccc(C(=O)Nc2cnc3c(c([C@@H]4CCN(C(=O)C5CCCC5)C(C)(C)C4)cn3C)c2C)cc1C#N [Example 59, (R)-3-cyano-N-(3-(1-(cyclopentanecarbonyl)-2,2-dimethylpiperidin-4-yl)-1,4-dimethyl-1H-pyrrolo[2,3-b]pyridin-5-yl)-4-methylbenzamide] | 11.8 |
| Cc1c(NC(=O)c2ccc(F)c(C#N)c2)cnc2c1c([C@@H]1CCN(C(=O)C3CCCC3)C(C)(C)C1)cn2C [Example 61, (R)-3-cyano-N-(3-(1-(cyclopentanecarbonyl)-2,2-dimethylpiperidin-4-yl)-1,4-dimethyl-1H-pyrrolo[2,3-b]pyridin-5-yl)-4-fluorobenzamide] | 15.2 |
| COc1cc(Cl)cc(C(=O)Nc2cnc3c(c([C@@H]4CCN(C(=O)C(C)C)C(C)(C)C4)cn3C)c2C)c1 [Example 62, (R)-3-chloro-N-(3-(1-isobutyryl-2,2-dimethylpiperidin-4-yl)-1,4-dimethyl-1H-pyrrolo[2,3-b]pyridin-5-yl)-5-methoxybenzamide] | 9.7 |
| COc1cc(Cl)cc(C(=O)Nc2cnc3c(c([C@@H]4CCN(C(=O)C5CCCC5)C(C)(C)C4)cn3C)c2C)c1 [Example 63, (R)-3-chloro-N-(3-(1-(cyclopentane-carbonyl)-2,2-dimethylpiperidin-4-yl)-1,4-dimethyl-1H-pyrrolo[2,3-b]pyridin-5-yl)-5-methoxybenzamide] | 12.9 |
| Cc1c(NC(=O)c2cc(O)cc(C#N)c2)cnc2c1c([C@@H]1CCN(C(=O)C3CCCC3)C(C)(C)C1)cn2C [Example 64, (R)-3-cyano-N-(3-(1-(cyclopentanecarbonyl)-2,2-dimethylpiperidin-4-yl)-1,4-dimethyl-1H-pyrrolo[2,3-b]pyridin-5-yl)-5-hydroxybenzamide] | 41.8 |
| Cn1cc([C@@H]2CCN(C(=O)C3CCCC3)C(C)(C)C2)c2c(C(F)(F)F)c(NC(=O)c3cccc(C#N)c3)cnc21 [Example 65, (R)-3-cyano-N-(3-(1-(cyclopentanecarbonyl)-2,2-dimethylpiperidin-4-yl)-1-methyl-4-(trifluoromethyl)-1H-pyrrolo[2,3-b]pyridin-5-yl)benzamide] | 5.7 |
| Cc1c(NC(=O)c2cccc(C#N)c2)cnc2c1c([C@@H]1CCN(C(=O)C[C@@H](O)C(F)(F)F)C(C)(C)C1)cn2C [Example 73, 3-cyano-N-(3-((R)-2,2-dimethyl-1-((R)-4,4,4-trifluoro-3-hydroxybutanoyl)piperidin-4-yl)-1,4-dimethyl-1H-pyrrolo[2,3-b]pyridin-5-yl)benzamide] | 22.6 |
| Cc1c(NC(=O)c2cccc(C#N)c2)cnc2c1c([C@@H]1CCN(C(=O)CC3CCCC3)C(C)(C)C1)cn2C [Example 74, (R)-3-cyano-N-(3-(1-(2-cyclopentylacetyl)-2,2-dimethylpiperidin-4-yl)-1,4-dimethyl-1H-pyrrolo[2,3-b]pyridin-5-yl)benzamide] | 6.2 |
